Results reported in patent publication US5998362A, “Conjugates useful in the treatment of prostate cancer” (priority 1997, dated 1999).
Where a SMILES comes first, the peptide text is derived from it. [ ]: non-standard residue; d: D form. The star is where a group is joined. X2 = COCCOCCOCCOCCOCCOCCOCCOCCOCCOCCOCCOCCOCCOCCOCCOCCOCC(=O)*; X5 = COCCOCCOCCOCCOCCOCCOCCOCCOCCOCCOCCOCCOCCOCCOCCOCC(=O)*; X6 = COCCOCCOCCOCCOCCOCCOCCOCCOCCOCCOCCOCCOCCOCCOCC(=O)*; Decanoyl(3,6,9-trioxa) = COCCOCCOCC(=O)*; Glyceroyl(2S) = O=C([C@@H](O)CO)*; Glyceroyl(2R) = O=C([C@H](O)CO)*; hArg = N=C(N)NCCCC[C@H](N)C(=O)O; 3Pal = N[C@@H](Cc1cccnc1)C(=O)O; MeOCH2CH2OCH2CO = COCCOCC(=O)*; X4 = O=C([C@H](O)[C@@H](O)CO)*; Chg = N[C@H](C(=O)O)C1CCCCC1; Nle = CCCC[C@H](N)C(=O)O; Glycolyl = O=C(CO)*

Molecular target: free PSA (Homo sapiens, UniProt P07288)
Assay: Recognition of oligopeptides by free PSA (time to 50% cleavage, HPLC)
Procedure: The oligopeptides prepared as described in Example 1 were individually dissolved in PSA digestion buffer (12 mM tris(hydroxymethyl)-aminomethane pH8.0, 25 mM NaCl, 0.5 mM CaCl2) and the solution added to PSA at a molar ration of 100 to 1. The reaction is quenched after various reaction times by the addition of trifluoroacetic acid (TFA) to a final 1% (volume/volume). The quenched reaction was analyzed by HPLC on a reversed-phase C18 column using an aqueous 0.1% TFA/acetonitrile gradient. […] Oligopeptides containing free amine moieties (ie. comprising hArg, Orn, Lys and or 3PAL) were tested as TFA salts. All other oligopeptides were tested as neutral compounds.

[1] = Table 2, oligopeptides, PSA digestion buffer 12 mM Tris pH8.0, 25 mM NaCl, 0.5 mM CaCl2, substrate:PSA 100 to 1

Chain of free PSA (P07288 25-261): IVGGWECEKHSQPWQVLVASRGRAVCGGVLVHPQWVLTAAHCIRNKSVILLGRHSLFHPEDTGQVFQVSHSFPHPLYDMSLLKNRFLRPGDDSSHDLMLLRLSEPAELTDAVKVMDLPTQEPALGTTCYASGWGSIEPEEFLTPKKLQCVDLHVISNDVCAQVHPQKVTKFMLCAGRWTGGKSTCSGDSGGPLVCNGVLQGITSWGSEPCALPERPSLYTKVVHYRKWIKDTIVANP

Compound | Time to 50% Substrate Cleavage by York PSA (free psa, pH 8) | further results
CC(C)C[C@H](NC(=O)[C@H](CO)NC(=O)[C@H](CCC(N)=O)NC(=O)[C@H](Cc1ccc(O)cc1)NC(=O)[C@H](CCCCNC(=N)N)NC(=O)CO)C(=O)O [2-hydroxyacetylhRYQ-SL-acid] (Glycolyl-[hArg]YQSL-OH) |  | Time to 50% Substrate Cleavage by York PSA (Min), values marked * (free psa): 105 min
CC(C)C[C@H](NC(=O)[C@H](CO)NC(=O)[C@H](CCC(N)=O)NC(=O)[C@@H](NC(=O)[C@H](CCCCNC(=N)N)NC(=O)[C@H](CO)NC(=O)[C@H](O)[C@@H](O)CO)C1CCCCC1)C(=O)O [(2R,3S)2,3,4-trihydroxybutanoyl-ShRChgQ-SL-acid] (X4-S[hArg][Chg]QSL-OH) | 90 min | 
CC(C)C[C@H](NC(=O)[C@H](CO)NC(=O)[C@H](CCC(N)=O)NC(=O)[C@@H](NC(=O)[C@H](CO)NC(=O)[C@H](CO)NC(=O)[C@H](Cc1cccnc1)NC(=O)[C@@H](O)CO)C1CCCCC1)C(=O)O [(I)2,3-dihydroxypropionyl-3PAL-SSChgQ-SL-acid] ({Glyceroyl(2S)}-[3Pal]SS[Chg]QSL-OH) | 70 min | 
CC(C)C[C@H](NC(=O)[C@H](CO)NC(=O)[C@H](CCC(N)=O)NC(=O)[C@@H](NC(=O)[C@H](CO)NC(=O)[C@H](CO)NC(=O)[C@@H](O)CO)C1CCCCC1)C(=O)O [(I)2,3-dihydroxypropionyl-SSChgQ-SL-acid] ({Glyceroyl(2S)}-SS[Chg]QSL-OH) | 180 min | 
CC(C)C[C@H](NC(=O)[C@H](CO)NC(=O)[C@H](CCC(N)=O)NC(=O)[C@@H](NC(=O)[C@H](CO)NC(=O)[C@H](CO)NC(=O)[C@H](CO)NC(=O)[C@@H](O)CO)C1CCCCC1)C(=O)O [(I)2,3-dihydroxypropionyl-SSSChgQ-SL-acid] ({Glyceroyl(2S)}-SSS[Chg]QSL-OH) | 80 min | Time to 50% Substrate Cleavage by York PSA [1]: 110 min
CC(C)C[C@H](NC(=O)[C@H](CO)NC(=O)[C@H](CCC(N)=O)NC(=O)[C@@H](NC(=O)[C@H](CO)NC(=O)[C@H](CO)NC(=O)[C@H](CO)NC(=O)CO)C1CCCCC1)C(=O)O [(OH-Ac)SSSChgQ-SL-acid] (Glycolyl-SSS[Chg]QSL-OH) | 120 min | 
CC(C)C[C@H](NC(=O)[C@H](CO)NC(=O)[C@H](CCC(N)=O)NC(=O)[C@@H](NC(=O)[C@H](CO)NC(=O)[C@H](CO)NC(=O)[C@H](Cc1cccnc1)NC(=O)[C@H](O)CO)C1CCCCC1)C(=O)O [(d)2,3-dihydroxypropionyl-3PAL-SSChgQSL-acid] ({Glyceroyl(2R)}-[3Pal]SS[Chg]QSL-OH) | 80 min | 
CC(=O)N[C@@H](CCCCNC(=N)N)C(=O)N[C@@H](CO)C(=O)N[C@@H](CO)C(=O)N[C@H](C(=O)N[C@@H](CCC(N)=O)C(=O)N[C@@H](CO)C(=O)N[C@@H](CC(C)C)C(=O)O)C1CCCCC1 [AChRSSChgQ-SL-acid] (Ac-[hArg]SS[Chg]QSL-OH) | 120 min | Time to 50% Substrate Cleavage by York PSA (Min), values marked * (free psa): 45 min
CCCC[C@H](NC(=O)[C@H](CO)NC(=O)[C@H](CCC(N)=O)NC(=O)[C@@H](NC(=O)[C@H](CCCCNC(=N)N)NC(=O)[C@H](CO)NC(C)=O)C1CCCCC1)C(=O)O [Ac-ShRChgQ-SNle-acid] (Ac-S[hArg][Chg]QS[Nle]-OH) |  | Solubility remark in the cleavage column (INSOLUBLE / PS / PP) (Table 2, oligopeptides, abbreviations not defined): INSOLUBLE
CC(=O)N[C@@H](CCCCNC(=N)N)C(=O)N[C@@H](C)C(=O)N[C@@H](CO)C(=O)N[C@H](C(=O)N[C@@H](CCC(N)=O)C(=O)N[C@@H](CO)C(=O)N[C@@H](CC(C)C)C(=O)O)C1CCCCC1 [Ac-hRASChgQ-SL-acid] (Ac-[hArg]AS[Chg]QSL-OH) | 50 min | 
COCCOCC(=O)N[C@@H](CO)C(=O)N[C@@H](CCCCNC(=N)N)C(=O)N[C@H](C(=O)N[C@@H](CCC(N)=O)C(=O)N[C@@H](CO)C(=O)N[C@@H](CC(C)C)C(=O)O)C1CCCCC1 [PEG(1)-ShRChgQ-SL-acid] (MeOCH2CH2OCH2CO-S[hArg][Chg]QSL-OH) |  | Time to 50% Substrate Cleavage by York PSA (Min), values marked * (free psa): 120 min
COCCOCC(=O)N[C@@H](CO)C(=O)N[C@@H](CCCCNC(=N)N)C(=O)N[C@@H](Cc1ccc(O)cc1)C(=O)N[C@@H](CCC(N)=O)C(=O)N[C@@H](CO)C(=O)N[C@@H](CC(C)C)C(=O)O [PEG(1)-ShRYQ-SL-acid] (MeOCH2CH2OCH2CO-S[hArg]YQSL-OH) | 90 min | 
COCCOCC(=O)N[C@@H](CCCCNC(=N)N)C(=O)N[C@@H](CO)C(=O)N[C@@H](CO)C(=O)N[C@H](C(=O)N[C@@H](CCC(N)=O)C(=O)N[C@@H](CO)C(=O)N[C@@H](CC(C)C)C(=O)O)C1CCCCC1 [PEG(1)-hRSSChgQ-SL-acid] (MeOCH2CH2OCH2CO-[hArg]SS[Chg]QSL-OH) | 30 min | 
COCCOCCOCC(=O)N[C@@H](Cc1cccnc1)C(=O)N[C@@H](CO)C(=O)N[C@@H](CO)C(=O)N[C@H](C(=O)N[C@@H](CCC(N)=O)C(=O)N[C@@H](CO)C(=O)N[C@@H](CC(C)C)C(=O)O)C1CCCCC1 [PEG(2)-3PAL-SSChgQ-SL-acid] ({Decanoyl(3,6,9-trioxa)}-[3Pal]SS[Chg]QSL-OH) | 80 min | 
COCCOCCOCC(=O)N[C@@H](CO)C(=O)N[C@@H](CCCCNC(=N)N)C(=O)N[C@H](C(=O)N[C@@H](CCC(N)=O)C(=O)N[C@@H](CO)C(=O)N[C@@H](CC(C)C)C(=O)O)C1CCCCC1 [PEG(2)-S-hRChgQ-SL-acid] ({Decanoyl(3,6,9-trioxa)}-S[hArg][Chg]QSL-OH) | 30 min | 
COCCOCCOCC(=O)N[C@@H](CO)C(=O)N[C@@H](CO)C(=O)N[C@@H](Cc1ccc(O)cc1)C(=O)N[C@@H](CCC(N)=O)C(=O)N[C@@H](CO)C(=O)N[C@@H](CC(C)C)C(=O)O [PEG(2)-SSYQ-SL-acid] ({Decanoyl(3,6,9-trioxa)}-SSYQSL-OH) | 150 min | 
COCCOCCOCC(=O)N[C@@H](CO)C(=O)N[C@@H](CCCCNC(=N)N)C(=O)N[C@@H](Cc1ccc(O)cc1)C(=O)N[C@@H](CCC(N)=O)C(=O)N[C@@H](CO)C(=O)N[C@@H](CC(C)C)C(=O)O [PEG(2)-ShRYQ-SL-acid] ({Decanoyl(3,6,9-trioxa)}-S[hArg]YQSL-OH) |  | Time to 50% Substrate Cleavage by York PSA (Min), values marked * (free psa): 35 min
COCCOCCOCC(=O)N[C@@H](CCCCNC(=N)N)C(=O)N[C@@H](CO)C(=O)N[C@@H](CO)C(=O)N[C@H](C(=O)N[C@@H](CCC(N)=O)C(=O)N[C@@H](CO)C(=O)N[C@@H](CC(C)C)C(=O)O)C1CCCCC1 [PEG(2)-hRSSChgQ-SL-acid] ({Decanoyl(3,6,9-trioxa)}-[hArg]SS[Chg]QSL-OH) |  | Time to 50% Substrate Cleavage by York PSA (Min), values marked * (free psa): 40 min
COCCOCCOCC(=O)N[C@@H](CO)C(=O)N[C@@H](CO)C(=O)N[C@@H](CO)C(=O)N[C@H](C(=O)N[C@@H](CCC(N)=O)C(=O)N[C@@H](CO)C(=O)N[C@@H](CC(C)C)C(=O)O)C1CCCCC1 [PEG(2)SSSChgQ-SL-acid] ({Decanoyl(3,6,9-trioxa)}-SSS[Chg]QSL-OH) | 150 min | 
COCCOCCOCCOCCOCCOCCOCCOCCOCCOCCOCCOCCOCCOCCOCC(=O)N[C@@H](CO)C(=O)N[C@@H](CCCCNC(=N)N)C(=O)N[C@@H](Cc1ccc(O)cc1)C(=O)N[C@@H](CCC(N)=O)C(=O)N[C@@H](CO)C(=O)N[C@@H](CC(C)C)C(=O)O [PEG(14)ShRYQ-SL-acid] (X6-S[hArg]YQSL-OH) | 40 min | 
COCCOCCOCCOCCOCCOCCOCCOCCOCCOCCOCCOCCOCCOCCOCCOCC(=O)N[C@@H](CO)C(=O)N[C@@H](CCCCNC(=N)N)C(=O)N[C@@H](Cc1ccc(O)cc1)C(=O)N[C@@H](CCC(N)=O)C(=O)N[C@@H](CO)C(=O)N[C@@H](CC(C)C)C(=O)O [PEG(15)-ShRYQ-SL-acid] (X5-S[hArg]YQSL-OH) | 40 min | 
COCCOCCOCCOCCOCCOCCOCCOCCOCCOCCOCCOCCOCCOCCOCCOCCOCC(=O)N[C@@H](CO)C(=O)N[C@@H](CCCCNC(=N)N)C(=O)N[C@@H](Cc1ccc(O)cc1)C(=O)N[C@@H](CCC(N)=O)C(=O)N[C@@H](CO)C(=O)N[C@@H](CC(C)C)C(=O)O [PEG(16)-ShRYQ-SL-acid] (X2-S[hArg]YQSL-OH) | 40 min | 
COCCOCCOCCOCCOCCOCCOCCOCCOCCOCCOCCOCCOCCOCCOCCOCCOCCOCC(=O)N[C@@H](CO)C(=O)N[C@@H](CCCCNC(=N)N)C(=O)N[C@@H](Cc1ccc(O)cc1)C(=O)N[C@@H](CCC(N)=O)C(=O)N[C@@H](CO)C(=O)N[C@@H](CC(C)C)C(=O)O [PEG(17)-ShRYQ-SL-acid] |  | Time to 50% Substrate Cleavage by York PSA [1]: 55 min
COCCOCCOCCOCCOCCOCCOCCOCCOCCOCCOCCOCCOCCOCCOCCOCCOCCOCCOCC(=O)N[C@@H](CO)C(=O)N[C@@H](CCCCNC(=N)N)C(=O)N[C@@H](Cc1ccc(O)cc1)C(=O)N[C@@H](CCC(N)=O)C(=O)N[C@@H](CO)C(=O)N[C@@H](CC(C)C)C(=O)O [PEG(18)ShRYQ-SL-acid] | 40 min | 
COCCOCCOCCOCCOCCOCCOCCOCCOCCOCCOCCOCCOCCOCCOCCOCCOCCOCCOCCOCC(=O)N[C@@H](CO)C(=O)N[C@@H](CCCCNC(=N)N)C(=O)N[C@@H](Cc1ccc(O)cc1)C(=O)N[C@@H](CCC(N)=O)C(=O)N[C@@H](CO)C(=O)N[C@@H](CC(C)C)C(=O)O [PEG(19)ShRYQ-SL-acid] | 60 min | 
CC(C)C[C@H](NC(=O)[C@H](CO)NC(=O)[C@H](CCC(N)=O)NC(=O)[C@@H](NC(=O)[C@H](CCCCNC(=N)N)NC(=O)[C@@H](N)CO)C1CCCCC1)C(=O)O [ShRChgQ-SL -acid] (H-S[hArg][Chg]QSL-OH) |  | Substrate cleavage by York PSA at 4 HOUR (Table 2, oligopeptides, 4 hours): 8%
PEG(4)-β-PAL-SSChgQ-SL-acid |  | Time to 50% Substrate Cleavage by York PSA [1]: 60 min
